Patent US9028845B2, “Chimeric immunomodulatory compounds and methods of using the same-IV” (Dynavax Technologies Corporation, priority 2001, dated 2015)

Test system: human PBMCs
Assay: Human PBMC cytokine response assay (IFN-γ and IFN-α in cell-free medium by ELISA), with or without cPLGA;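 on IFN-α (pg/ml) mean: 20 µg/mL compound for 24 hours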;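 on IFN-γ (pg/ml) mean: 20 µg/mL compound for 24 hours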
Assay type: cell-based
Details: for IFN-α mean / IFN-γ mean: mean of donors; for immunomodulatory activity (IFN-γ / IFN-α secretion), in words: used alone (no cPLGA)
[1] = mean of donors 110, 112, 119, 120, Table 14
[2] = mean of donors 28185-28188, Table 15
[3] = mean of donors 28057-28060, Table 16

5′-TCGTCGA-3′-HEG-5′-TCGTCGA-3′ [Compound C-39]
IFN-α (Table 10, donor 28042): 31 pg/mL
IFN-γ (Table 10, donor 28042): 343 pg/mL
IFN-α (Table 10, donor 28043): 187 pg/mL
IFN-γ (Table 10, donor 28043): 488 pg/mL
IFN-α (Table 10, donor 28044): 46 pg/mL
IFN-γ (Table 10, donor 28044): 281 pg/mL
IFN-α (Table 10, donor 28045): 36 pg/mL
IFN-γ (Table 10, donor 28045): 137 pg/mL
IFN-α mean (Table 10): 75 pg/mL
IFN-γ mean (Table 10): 312 pg/mL
IFN-α (donor 110, Table 14): 674 pg/mL
IFN-γ (donor 110, Table 14): 604 pg/mL
IFN-α (donor 112, Table 14): 26 pg/mL
IFN-γ (donor 112, Table 14): 116 pg/mL
IFN-α (donor 119, Table 14): 444 pg/mL
IFN-γ (donor 119, Table 14): 108 pg/mL
IFN-α (donor 120, Table 14): 250 pg/mL
IFN-γ (donor 120, Table 14): 32 pg/mL
activity when formulated with cPLGA, in words: significant activity when formulated with cPLGA
IFN-α (pg/ml) mean [1]: 349 pg/mL
IFN-γ (pg/ml) mean [1]: 215 pg/mL
immunomodulatory activity (IFN-γ / IFN-α secretion), in words: active when used alone

5′-TCGTCGA-3′-HEG-5′-AGATGAT-3′-HEG-5′-ACGTTCG-3′ [Compound C-56]
IFN-α (Table 13, donor 28156): 98 pg/mL
IFN-γ (Table 13, donor 28156): 1223 pg/mL
IFN-α (Table 13, donor 28157): 415 pg/mL
IFN-γ (Table 13, donor 28157): 543 pg/mL
IFN-α (Table 13, donor 28158): 57 pg/mL
IFN-γ (Table 13, donor 28158): 203 pg/mL
IFN-α (Table 13, donor 28159): 131 pg/mL
IFN-γ (Table 13, donor 28159): 563 pg/mL
IFN-α mean (Table 13): 175 pg/mL
IFN-γ mean (Table 13): 633 pg/mL
immunomodulatory activity (IFN-γ / IFN-α secretion), in words: most active CICs

5′-TCG-3′-HEG-5′-T-3′ [Compound C-68]
IFN-a (donor 28185, Table 15): 4 pg/mL
IFN-g (donor 28185, Table 15): 0 pg/mL
IFN-a (donor 28186, Table 15): 13 pg/mL
IFN-g (donor 28186, Table 15): 4 pg/mL
IFN-a (donor 28187, Table 15): 25 pg/mL
IFN-g (donor 28187, Table 15): 2 pg/mL
IFN-a (donor 28188, Table 15): 4 pg/mL
IFN-g (donor 28188, Table 15): 1 pg/mL
IFN-a (pg/ml) mean [2]: 11 pg/mL
IFN-g (pg/ml) mean [2]: 2 pg/mL
IFN-a (pg/ml) ×2 (mean ×2, Table 15): 23 pg/mL
IFN-g (pg/ml) ×4 (mean ×4, Table 15): 7 pg/mL
immunomodulatory activity (IFN-γ / IFN-α secretion), in words: neither CIC was active on its own

5′-TCGTCG-3′-(C3)15-5′-T-3′ [Compound C-13]
IFN-α (donor 28057, Table 16): 31 pg/mL
IFN-γ (donor 28057, Table 16): 2 pg/mL
IFN-α (donor 28058, Table 16): 0 pg/mL
IFN-γ (donor 28058, Table 16): 3 pg/mL
IFN-α (donor 28059, Table 16): 249 pg/mL
IFN-γ (donor 28059, Table 16): 12 pg/mL
IFN-α (donor 28060, Table 16): 0 pg/mL
IFN-γ (donor 28060, Table 16): 5 pg/mL
activity when formulated with cPLGA, in words: all had significant activity when formulated on cPLGA
IFN-α (pg/ml) mean [3]: 70 pg/mL
IFN-γ (pg/ml) mean [3]: 6 pg/mL
immunomodulatory activity (IFN-γ / IFN-α secretion), in words: None of the CICs was active when used alone

5′-ACGTTCG-3′-HEG-5′-TCGTCGA-3′-HEG-5′-AGATGAT-3′ [Compound C-57]
IFN-α (Table 13, donor 28156): 5 pg/mL
IFN-γ (Table 13, donor 28156): 419 pg/mL
IFN-α (Table 13, donor 28157): 52 pg/mL
IFN-γ (Table 13, donor 28157): 323 pg/mL
IFN-α (Table 13, donor 28158): 61 pg/mL
IFN-γ (Table 13, donor 28158): 67 pg/mL
IFN-α (Table 13, donor 28159): 42 pg/mL
IFN-γ (Table 13, donor 28159): 262 pg/mL
IFN-α mean (Table 13): 40 pg/mL
IFN-γ mean (Table 13): 268 pg/mL
immunomodulatory activity (IFN-γ / IFN-α secretion), in words: somewhat more active than C-58

5′-GsGs-3′-C3-5′-TGC-3′-C3-5′-ATCGAT-3′-C3-5′-GCA-3′-C3-5′-GGsGsGsGsG-3′ (s = phosphorothioate linkages, otherwise linkages are phosphodiester) [Compound C-84]
IFN-α (Table 11, donor 28042): 0 pg/mL
IFN-γ (Table 11, donor 28042): 29 pg/mL
IFN-α (Table 11, donor 28043): 0 pg/mL
IFN-γ (Table 11, donor 28043): 23 pg/mL
IFN-α (Table 11, donor 28044): 5 pg/mL
IFN-γ (Table 11, donor 28044): 69 pg/mL
IFN-α (Table 11, donor 28045): 222 pg/mL
IFN-γ (Table 11, donor 28045): 232 pg/mL
IFN-α mean (Table 11): 57 pg/mL
IFN-γ mean (Table 11): 88 pg/mL
